According to patent publication US11173165B2, “Optimizing mifepristone levels for Cushing's patients” (Corcept Therapeutics, Inc., priority 2015, dated 2021):

Experiments:
[1] = cited from earlier work
[2] = Mifepristone trough plasma level (MIFE-Ctrough) in Phase III open label study of Cushing's syndrome; format: in vivo, human; settings: for MIFE-Ctrough, Mean / MIFE-Ctrough, Max / MIFE-Ctrough, Median / MIFE-Ctrough, Min: responders who completed the study
Protocol: Three (3) mL of blood was collected from a patient in a vacutainer containing sodium heparin. The blood was centrifuged and the resulting plasma frozen at −70 to −80° C. until assay. For analysis, the plasma samples were warmed and prepared as follows: • 1. Using a pipette, 50.0 μL of the sample was aliquoted into a 16×100-mm glass test tube. When a partial volume aliquot was needed, the aliquot was added to the tube and diluted to full volume with blank human plasma. • 2. 20.0 μL of the internal standard, mifepristone-d4 (5.00 μg/mL in acetonitrile), was added to the tube, resulting in 2000.0 ng/mL mifepristone-d4 in plasma. • 3. The tube was vortexed for approximately 1 minute. • 4. 50.0 μL of 6% ammonium hydroxide was added to the tube. • 5. The tube was vortexed for approximately 1 minute. • 6. 2.00 mL of MTBE was added to the tube. • 7. 2.00 mL of hexane was added to the tube. • 8. The tube was vortexed for at least 15 minutes. • 9. The tube was centrifuged for at least 10 minutes at 2500 RPM (575×g). • 10. The aqueous layer was frozen in a freezer set to maintain −70° C. • 11. […] The tube was vortexed for approximately 1 minute. • 15. The tube was sonicated for approximately 1 minute. • 16. The tube was vortexed for approximately 1 minute. • 17. The sample was transferred to a labeled injection vial or well plate. • 18. The vial or plate was capped and checked for air bubbles. The sample was then analyzed by reverse-phase high pressure liquid chromatography using a water:acetonitrile:formic acid (60:40:0.1) mobile phase (isocratic) at a flow rate of 0.3 mL/min. The column was a phenyl column maintained at 50° C. Mifepristone elutes at 4.2 minutes. Following elution, the mobile phase was nebulized using heated nitrogen in a Z-spray source/interface and the ionized compounds detected using a tandem quadrupole mass spectrometer. Mifepristone (molecular weight of 430 g/mol) was detected at m/z 372.30. The internal standard mifepristone-d4 was detected at m/z 376.30. The ratio of the mifepristone peak height to the mifepristone-d4 peak height was calculated. The plasma concentration of mifepristone was then calculated by comparing the experimental ratio to a standard curve of mifepristone:mifepristone-d4 peak height ratio v. mifepristone concentration. The standard curve was generated by first measuring the mifepristone:mifepristone-d4 peak height ratios for mifepristone samples at 10, 20, 50, 100, 200, 500, 1000 and 2000 ng/mL where the mifepristone-d4 internal standard has a concentration of 2000 ng/mL. The mifepristone:mifepristone-d4 peak height ratios of these known solutions were then fit to a power equation (Mass Lynx by Micromass, Beverly, Mass.), and the sample with unknown concentrations of mifepristone was compared. […]

[3] = tested on: patients with a diagnosis of Cushing's syndrome; assay: Optimal response to mifepristone in Phase III open label study of Cushing's syndrome; format: in vivo, human; settings: responders who completed the study
Protocol: This example provides an open label study of the safety and efficacy in the treatment of Cushing's syndrome. The study was a Phase III trial performed using several investigators at several different sites. […] The number of patients was 50. Patients eligible for randomization were male or nonpregnant female outpatients, and inpatients, if clinically required, with a diagnosis of Cushing's syndrome. Mifepristone was used as the test drug at 300 (1×300 mg tablet), 600 (2×300 mg tablet), 900 (3×300 mg tablet) and 1200 mg (4×300 mg tablet) once a day by mouth. Safety visits occurred at Days 21 and 35. If clinically necessary, a patient was treated as an inpatient. If early termination occurred prior to day 35, the patient returned for a safety follow up visit at day 35. The primary efficacy endpoint was the proportion of patients with at least a 25% reduction from baseline on a standard two hour oral glucose tolerance test or a […] in their diastolic blood pressure at study end (6 months). The secondary endpoints were: (1) the patient's global impression; and (2) reduction in previously used antihypertensive medication. The criteria for assessing study efficacy objective was the proportion of patients with at least a 25% reduction from baseline on a standard two hour oral glucose tolerance test or a […] in their diastolic blood pressure at study end (6 months).

[4] = in vivo; cited from earlier work
[5] = molecular target: glucocorticoid receptor (GR) (Homo sapiens, UniProt P04150); settings: cited from earlier work
[6] = at first response, including early terminators

glucocorticoid receptor (GR), sequence (P04150 whole entry): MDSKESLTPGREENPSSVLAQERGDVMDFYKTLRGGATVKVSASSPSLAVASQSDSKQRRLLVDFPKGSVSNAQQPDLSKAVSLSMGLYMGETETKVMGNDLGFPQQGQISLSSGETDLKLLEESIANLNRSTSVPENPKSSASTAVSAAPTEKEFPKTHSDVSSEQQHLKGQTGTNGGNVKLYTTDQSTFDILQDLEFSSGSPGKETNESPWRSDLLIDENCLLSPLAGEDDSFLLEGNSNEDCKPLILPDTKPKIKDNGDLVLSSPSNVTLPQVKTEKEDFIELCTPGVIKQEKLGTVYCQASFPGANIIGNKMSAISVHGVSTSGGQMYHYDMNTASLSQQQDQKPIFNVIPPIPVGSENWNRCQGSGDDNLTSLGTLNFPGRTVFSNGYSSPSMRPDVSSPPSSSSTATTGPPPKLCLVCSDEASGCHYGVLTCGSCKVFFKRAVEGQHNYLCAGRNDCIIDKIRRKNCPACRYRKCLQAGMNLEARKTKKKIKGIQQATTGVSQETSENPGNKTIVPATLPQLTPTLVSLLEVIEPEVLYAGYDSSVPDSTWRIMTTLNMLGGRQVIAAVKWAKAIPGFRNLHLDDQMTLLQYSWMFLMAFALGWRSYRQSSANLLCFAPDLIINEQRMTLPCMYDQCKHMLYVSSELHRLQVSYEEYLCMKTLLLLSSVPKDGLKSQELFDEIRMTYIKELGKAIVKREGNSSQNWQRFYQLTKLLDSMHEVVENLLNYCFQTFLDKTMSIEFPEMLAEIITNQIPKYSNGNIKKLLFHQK

CC#C[C@]1(O)CC[C@H]2[C@@H]3CCC4=CC(=O)CCC4=C3[C@@H](c3ccc(N(C)C)cc3)C[C@@]21C [mifepristone, 17-beta-hydroxy-11-beta-(4-dimethyl-aminophenyl)-17-alpha-(1-propynyl)-estra-4,9-dien-3-one]
blood serum level to be maintained ([1]; patients suffering from a mental disorder): about 1300 ng/mL | difference in blood serum levels from one patient to another ([1]; same dose, different patients): ≤ 800% | MIFE-Ctrough at Response, Max [2, 6]: 4210.00 ng/mL | MIFE-Ctrough at Response, Mean [2, 6]: 1968.68 ng/mL | MIFE-Ctrough at Response, Median [2, 6]: 1770.00 ng/mL | MIFE-Ctrough at Response, Min [2, 6]: 448.00 ng/mL | MIFE-ΔCtrough from Prior Dose, Max [2, 6]: 2017.00 ng/mL | MIFE-ΔCtrough from Prior Dose, Mean [2, 6]: 221.50 ng/mL | MIFE-ΔCtrough from Prior Dose, Median [2, 6]: 250.00 ng/mL | MIFE-ΔCtrough from Prior Dose, Min [2, 6]: -860.00 ng/mL | MIFE-Ctrough, Mean ([2]; dose 300 (mg once a day by mouth)): 1774.28 ng/mL | MIFE-Ctrough, Max ([2]; dose 300): 4130.00 ng/mL | MIFE-Ctrough, Median ([2]; dose 300): 1455.00 ng/mL | MIFE-Ctrough, Min ([2]; dose 300): 820.00 ng/mL | MIFE-Ctrough, Mean ([2]; dose 600 (mg once a day by mouth)): 1951.66 ng/mL | MIFE-Ctrough, Max ([2]; dose 600): 3850.00 ng/mL | MIFE-Ctrough, Median ([2]; dose 600): 1630.00 ng/mL | MIFE-Ctrough, Min ([2]; dose 600): 890.00 ng/mL | MIFE-Ctrough, Mean ([2]; dose 900 (mg once a day by mouth)): 2107.70 ng/mL | MIFE-Ctrough, Max ([2]; dose 900): 4230.00 ng/mL | MIFE-Ctrough, Median ([2]; dose 900): 1820.00 ng/mL | MIFE-Ctrough, Min ([2]; dose 900): 992.00 ng/mL | MIFE-Ctrough, Mean ([2]; dose 1200 (mg once a day by mouth)): 2292.86 ng/mL | MIFE-Ctrough, Max ([2]; dose 1200): 5440.00 ng/mL | MIFE-Ctrough, Median ([2]; dose 1200): 2022.50 ng/mL | MIFE-Ctrough, Min ([2]; dose 1200): 1060.00 ng/mL | blood serum level to be maintained for a therapeutic response ([2]; patients suffering from Cushing's syndrome): at least 1631 ng/mL | Cumulative Optimal Response (%) ([3]; dose 300): 20% | Optimal Response (%) ([3]; dose 300): 20% | Cumulative Optimal Response (%) ([3]; dose 600): 40% | Optimal Response (%) ([3]; dose 600): 20% | Cumulative Optimal Response (%) ([3]; dose 900): 60% | Optimal Response (%) ([3]; dose 900): 20% | Cumulative Optimal Response (%) ([3]; dose 1200): 100% | Optimal Response (%) ([3]; dose 1200): 40% | LD50 dose [4]: about 1000 mg/kg | binding to the glucocorticoid receptor (GR) [5]: high affinity
